The record followed here is patent US20250090510A1, “eIF4G1-eIF1 INHIBITORS AND USE THEREOF” (YEDA RESEARCH AND DEVELOPMENT CO. LTD., priority 2022, published 2025).

The assay has as its system HEK293T cells. In words: Puromycin labeling (puromycin-incorporation assay). It is filed as cell-based. To be noted: Homo sapiens, HEK-293T; 3 h treatment, puromycin 10 μg/ml 5 minutes; read-out: IC-50, nascent polypeptide puromycin labeling. The protocol: FIGS. 3A-F: i14G1-10 and i14G1-12 inhibit mRNA translation and sensitize cell survival of eIF4G1 and eIF1 depleted cells. (3A) In-vitro translation using rabbit reticulocyte lysate which was pre-incubated with different concentrations of i14G1-10 or i14G1-12 for 10 minutes followed by the addition of capped firefly luciferase mRNA. After 90 minutes at 30° C., the luminescence signal was measured and the IC50 was calculated. The data represents mean±SEM of 6 independent repeats. (3B) HEK293T cells were treated with DMSO (vehicle control), and sub-cytotoxic concentrations of i14G1-10 (20 μM) and i14G1-12 (10 μM) for 3h. Cell lysates were then subjected to sucrose gradient sedimentation to obtain polysome profiles. (3C) HEK293T cells were treated with the indicated concentrations of i14G1-10 and i14G-12 for 3 h, followed by the addition of puromycin (10 μg/ml) for 5 minutes, after which cells were lysed and analyzed by western blot using an anti-puromycin antibody and anti-GAPDH antibody that serves as a loading control. […] The calculated IC-50 is shown. […] The calculated IC-50 is shown. (3E) The graphs represent cell viability of the indicated cell lines in the presence of increasing concentrations of i14G1-10 and i14G1, analyzed by Luminescent Cell Viability Assay. […]

In the case of `O=C(/C=C/Sc1ccc(C(F)(F)F)cn1)c1ccccc1` [i14G1-10], the IC50 turned out to be 20.4 µM.
The figure for `Cn1ccnc1S/C(=C/C=C(C#N)C#N)c1ccc(Cl)cc1` [i14G1-12] is 4.96 µM.
